The test relates to human myeloma cell lines (HMCLs). The experiment in a line: In vitro chemosensitivity (cytotoxicity) assay, CellTiter-Glo luminescent cell viability, panel of 50 HMCLs. The format is cell-based. The settings on record: for IC50: single agent, viability 48 hours post treatment; for AUSC (area under the survival curve), Maximum / AUSC (area under the survival curve), Mean / AUSC (area under the survival curve), Median / AUSC (area under the survival curve), Minimum: trapezoidal rule, 48 hours post treatment. The procedure:
Fifty (50) HMCLs were procured from various institutions, established and characterized, and maintained in Human Myeloma Cell Line (HMCL) media with IL-6 (Mitra et al., 2016). Table 1A provides the cytogenetic characteristics of the […] cytotoxicity assays were performed on the HMCLs to create a drug sensitivity profile in response to treatment with increasing concentrations of Bz, Cz, Ix and Opz as single agents and half-maximal inhibitory concentration/IC50 values and area under the survival curve/AUSC were calculated as described in Mitra et al. (2016). Briefly, cells were counted using Countess automated cell counter (Invitrogen) and seeded in 96-well plates at a concentration of 4×10^5 cells per mL. After 24 hours, cells were treated with increasing concentrations of Bz, Cz, Ix and Opz as single agents. […] Percent survival values were normalized to untreated controls and half-maximal inhibitory concentration/IC50 values were determined by calculating the nonlinear regression using sigmoidal dose-response equation (variable slope). Area under the survival curve/AUSC was calculated using trapezoidal rule and log2-transformed for further statistical analysis (Mitra et al., 2016). Caspase3/7 activity were evaluated using Caspase-Glo®3/7 Assay kit (Promega) on Synergy 2 Microplate Reader.
(Cellular ATP, detected with luciferase, serves as a proxy for viable cell number.)

Setting [1] is: Homo sapiens, maximum across panel of 50 HMCLs, read-out: IC50, Maximum.
[2] abbreviates: Homo sapiens, mean across panel of 50 HMCLs, read-out: IC50, Mean.
Where [3] appears, read: Homo sapiens, median across panel of 50 HMCLs, read-out: IC50, Median.
Where [4] appears, read: Homo sapiens, minimum across panel of 50 HMCLs, read-out: IC50, Minimum.
[5] abbreviates: maximum across panel of 50 HMCLs.
[6] abbreviates: median across panel of 50 HMCLs.
The mark [7] stands for this setting: minimum across panel of 50 HMCLs.

Where two headings read alike, the source gives them in different places.

`CC(C)C[C@H](NC(=O)[C@H](Cc1ccccc1)NC(=O)c1cnccn1)B(O)O` [Bortezomib]: the IC50 under setting [1] worked out at 124 nM, the half-maximal inhibitory concentration (IC50) under setting [2] is 17.1 nM, the IC50 under setting [3] came out at 11.7 nM and the IC50 under setting [4] was determined as 2.8 nM. Moreover, under setting [5], the “AUSC (area under the survival curve), Maximum” value (shortened to “AUSC … Maximum”) worked out at 38.974 µM. The “AUSC (area under the survival curve), Mean” value (from here on “AUSC … Mean”) (mean across panel of 50 HMCLs) worked out at 2.7001 µM. Besides, the “AUSC (area under the survival curve), Median” value (from here on “AUSC … Median”) under setting [6] came to 1524.0 nM. In addition, the “AUSC (area under the survival curve), Minimum” value (“AUSC … Minimum” below) under setting [7] was 319.6 nM.

Take `CC(C)C[C@H](NC(=O)[C@H](CCc1ccccc1)NC(=O)CN1CCOCC1)C(=O)N[C@@H](Cc1ccccc1)C(=O)N[C@@H](CC(C)C)C(=O)[C@@]1(C)CO1` [Carfilzomib]: the IC50 is, setting by setting: under setting [1], 55.3 nM; under setting [2], 10.9 nM; under setting [3], 7.1 nM; under setting [4], 0.7 nM. Further, under setting [5], the “AUSC … Maximum” value stood at 19.097 µM. The “AUSC … Mean” value (mean across panel of 50 HMCLs) came out at 3.5034 µM. Also, the “AUSC … Median” value under setting [6] amounted to 1448.5 nM. Further, under setting [7], the “AUSC … Minimum” value was 375.5 nM.

For `CC(C)C[C@H](NC(=O)CNC(=O)c1cc(Cl)ccc1Cl)B(O)O` [Ixazomib], the half-maximal inhibitory concentration (IC50) (maximum across panel of 50 HMCLs, read-out: IC50, Maximum) was 4760 nM; the IC50 (mean across panel of 50 HMCLs, read-out: IC50, Mean) was determined as 155 nM; the IC50 (median across panel of 50 HMCLs, read-out: IC50, Median) was found to be 42.1 nM; the IC50 (minimum across panel of 50 HMCLs, read-out: IC50, Minimum) was found to be 15.1 nM. Also, the “AUSC … Maximum” value under setting [5] amounted to 46.494 µM. The “AUSC … Mean” value (mean across panel of 50 HMCLs) is 10.03 µM. The “AUSC … Median” value under setting [6] was determined as 6456.0 nM. In addition, the “AUSC … Minimum” value under setting [7] is listed as 1702.0 nM.

`COC[C@H](NC(=O)c1cnc(C)s1)C(=O)N[C@@H](COC)C(=O)N[C@@H](Cc1ccccc1)C(=O)[C@@]1(C)CO1` [Oprozomib]: the IC50 reads like this: under setting [1], 776 nM; under setting [2], 45.8 nM; under setting [3], 23.7 nM; under setting [4], 7.6 nM. Besides, the “AUSC … Maximum” value under setting [5] is 59.917 µM. The “AUSC … Mean” value (mean across panel of 50 HMCLs) worked out at 5.017 µM. Besides, the “AUSC … Median” value under setting [6] came to 2885.0 nM. The “AUSC … Minimum” value under setting [7] is 1050.0 nM.

In general, IC50 refers to the concentration that gives 50% inhibition.

These data come from US20170159130A1, “TRANSCRIPTIONAL CLASSIFICATION AND PREDICTION OF DRUG RESPONSE (T-CAP DR)” (priority 2015, published 2017).
